Source: patent US12714696B2, “Low dose fluralaner compositions for protection against parasitic invertebrate pest” (VIRBAC, priority 2019, dated 2026)

Experiments:
[1] = tested on: Rhipicephalus sanguineus; assay: Efficacy against ticks on dogs, oral 250/35/600 μg/kg study; format: in vivo; details: for Percentage efficacy using geometric mean, live ticks / live ticks, geometric mean, Group 2: oral 250/35/600 μg/kg regimen, dogs
Experimental: The second objective is to investigate the pharmacodynamics between the fluralaner plasmatic dose and the effectiveness against ticks. • IVP: Investigational Veterinary Product, is pure Fluralaner+DMSO (250 μg/kg on Days 0 to 3 (0.25 mL/kg), then 35 μg/kg on Days 4 to 9 (0.35 mL/kg), then 600 μg/kg on Day 11) • Control product is DMSO (0.25 mL/kg on Days 0 to 3, then 0.35 mL/kg on Days 4 to 9)
Dogs were infested with approximately 50 (±4) viable, adult, unfed R. sanguineus ticks on Days 1, 3, 5, 8, 10, 12, 16, 22, 26 and 30 to assess efficacy. Ticks will be removed and counted on Days 3, 5, 7 (48 hours±2 hours after infestation) and 9, 11, 13, 17, […], 27, 32 (24 hours±2 hours after infestation). Dogs were also infested with approximately 100 (±8) viable, adult, C. felis fleas on Day −6 (±1 day) for randomisation purposes and on Day 2 to assess efficacy. Fleas will be removed and counted on Days −5 (+1 day) and 3 (24 hours±2 hours after infestation).
The efficacy against ticks and fleas were calculated for the study groups at each assessment day according to the formulas given below.
Efficacy calculations based on geometric mean values were, however, also reported on. Such calculations were based on the geometric mean values of the tick or flea (count+1) data. One (1) was subsequently subtracted from the result to obtain a meaningful value for the geometric mean of each group.
Efficacy was calculated as follows: Efficacy (%)=100×(Mc−Mt)/Mc, where: • Mc=Mean number of live ticks (categories 1 to 2) or live fleas on dogs in the negative control group (group 1) at a specific time point. • Mt=Mean number of live ticks (categories 1 to 2) or live fleas on dogs in the IVP group (group 2) • at a specific time point.

[2] = plasma pK in dogs; fluralaner 56 mg/kg; cited from earlier work

Cc1cc(C2=NOC(c3cc(Cl)cc(Cl)c3)(C(F)(F)F)C2)ccc1C(=O)NCC(=O)NCC(F)(F)F (stereo not drawn) [fluralaner, Fluralaner]
Percentage efficacy using geometric mean, live ticks ([1]; Day 3): 100 | live ticks, geometric mean, Group 2 ([1]; Day 3): 0.0 | Percentage efficacy using geometric mean, live ticks ([1]; Day 5): 100 | live ticks, geometric mean, Group 2 ([1]; Day 5): 0.0 | Percentage efficacy using geometric mean, live ticks ([1]; Day 7): 100 | live ticks, geometric mean, Group 2 ([1]; Day 7): 0.0 | Percentage efficacy using geometric mean, live ticks ([1]; Day 9): 47.3 | live ticks, geometric mean, Group 2 ([1]; Day 9): 11.8 | Percentage efficacy using geometric mean, live ticks ([1]; Day 11): 77.8 | live ticks, geometric mean, Group 2 ([1]; Day 11): 7.8 | Percentage efficacy using geometric mean, live ticks ([1]; Day 13): 85.0 | live ticks, geometric mean, Group 2 ([1]; Day 13): 4.5 | Percentage efficacy using geometric mean, live ticks ([1]; Day 17): 80.8 | live ticks, geometric mean, Group 2 ([1]; Day 17): 5.1 | Percentage efficacy using geometric mean, live ticks ([1]; Day 23): 46.1 | Percentage efficacy using geometric mean, live ticks ([1]; Day 27): 78.9 | live ticks, geometric mean, Group 2 ([1]; Day 27): 6.8 | Percentage efficacy using geometric mean, live ticks ([1]; Day 31): 56.1 | efficacy against ticks from the first day after treatment ([1]; infestation at D1, first measurement at D3): present | efficacy against ticks ([1]; period during the first four doses of 250 μg/kg per day and the following three doses of 35 μg/kg per day): 100% | interference between fluralaner and ivermectin [2]: absence of interference
